Results reported in paper PMC11840605, “Crystallographic and Thermodynamic Evidence of Negative Coupling in the Flavin-Dependent Tryptophan Halogenases AbeH and BorH” (ACS Omega, 2025).
Where two headings read alike, the source gives them in different places.

Key:
BorH [1] = target: T1, BorH (uncultured bacterium, UniProt M9QSI0); assay: Quenching of BorH intrinsic Trp fluorescence upon FAD titration; design: species or system uncultured soil actinomycetes; conditions: 100 nM BorH; read-out: KD, FAD binding to BorH, BorH intrinsic Trp fluorescence
Method: Intrinsic tryptophan fluorescence spectroscopy was used to measure FAD binding to AbeH and BorH in 20 mM HEPES pH 7.7- and 50 mM sodium citrate. FAD was prepared in the same buffer and its concentration was determined spectrophotometrically as described earlier. Fluorescence experiments were performed as described earlier. FAD binding to apo-AbeH or apo-BorH was performed in duplicate with 100 nM fixed AbeH or BorH with variable FAD concentrations up to 30 and 70 μM, respectively. AbeH/FAD binding was monitored using excitation at 295 nm and emission at 328 nm. BorH/FAD binding was monitored using excitation at 290 nm and emission at 326 nm. Inner filter effect corrected fluorescence intensities were plotted against quenched intrinsic tryptophan fluorescence of AbeH and BorH. Data were fitted by nonlinear regression to eq 1 using GraphPad Prism 8.0.
Figure S9: FAD binding determined by quenching of BorH and AbeH intrinsic Trp fluorescence.
A. Variable concentrations of FAD (0-70 µM) were incubated with 100 nM BorH and Trp fluorescence was measured with excitation at 290 nm and emission at 326 nm. […]
B. Variable concentrations of FAD (0-30 µM) were incubated with 100 nM AbeH and Trp fluorescence was measured […] with excitation at 295 nm and emission at 328 nm. […]

AbeH [2] = target: T2, AbeH (uncultured bacterium, UniProt F6LWA5); assay: Isothermal titration calorimetry, ligand into AbeH; assay type: binding, uncultured soil actinomycetes
Method: (§1) ITC experiments were performed using a VP-ITC isothermal titration calorimeter (MicroCal) in 20 mM HEPES pH 7.5, 350 mM NaCl, 1 mM ethylenediamine tetraacetic acid (EDTA) and 15% (v/v) glycerol. Solutions of AbeH, BorH, FAD (Chem-Implex), and Trp (Acros Organics) were prepared in the same buffer and degassed under vacuum at 30 °C for 20 min before loading in the syringe or cell. To analyze formation of binary complexes, AbeH or BorH was placed inside the cell, and ligand (FAD or Trp) was injected. For ternary complex titration, one ligand was preincubated with the macromolecule for 30 min at 30 °C to form binary complexes of AbeH/FAD, AbeH/Trp, BorH/FAD, and BorH/Trp before titrating with the second ligand. To test FADH2 binding to AbeH and BorH, FAD was reduced to FADH2 using sodium dithionite and stored under N2. Formation of FADH2 by sodium dithionite was verified using absorbance and fluorescence spectrophotometry.
(§2) ITC experiments were performed with reference power set to 10 μcal/s and Milli-Q water in the reference cell. All experiments were done with a pretitration delay of 20 min, a 5 min interval between injections, and a filter period of 2 s in high feedback gain mode. All experiments were performed at 310 rpm to mix the components in cell and titrant. All other VP-ITC instrumental parameters were set to default settings. Heats of dilution for all titrants were measured by titrating ligand into buffer for binary complex titrations, and by titrating ligand into a solution containing the other ligand but no protein for ternary complex titration.
1.2 mM FAD (2 μL/1 and 5 μL/19 injections) into 18 μM AbeH (Figure 4A)
0.12 mM FADH2 (2 μL/1 and 15 μL/19 injections) into 7 μM AbeH in the presence of sodium dithionite (Figure 4B)
1.4 mM Trp (3 μL/1 and 10 μL/29 injections) into 43 μM AbeH (Figure S7)
16 mM Trp (2 μL/1 and 10 μL/29 injections) into 18 μM AbeH (Figure 5A)
(§3) Titrations were analyzed by manually integrating each injection, subtracting the heat of dilution, and carrying out nonlinear least-squares fit of the calorimetric binding data to a one-site model using Origin 7.0 (Origin Lab). Trp binding experiments were subtracted by point-by-point heat of dilution, and FAD and FADH2 binding experiments were subtracted using the mean heat of the last three injections. For the Trp binding data, n was fixed to 1 based on expected stoichiometry of 1:1 based on FDH crystal structures and as proposed for lower c-value titrations in the literature.[23],[25],[82] The other parameters were not constrained during fitting.

BorH [3] = target: T1, BorH; assay: Isothermal titration calorimetry, ligand into BorH; assay type: binding, uncultured soil actinomycetes
Method: as §1, with “Solutions” for “ITC experiments were performed using a VP-ITC isothermal titration calorimeter (MicroCal) in 20 mM HEPES pH 7.5, 350 mM NaCl, 1 mM ethylenediamine tetraacetic acid (EDTA) and 15% (v/v) glycerol. Solutions”
as §2, §3

AbeH [4] = target: T2, AbeH; assay type: biochemical, uncultured soil actinomycetes; conditions: same reaction conditions
Method: To test the ability of BorH and AbeH to chlorinate and brominate other substrates, 100 μL reactions containing 5 μM AbeH or BorH, 10 μM of holo-AbeF or holo-BorF, 100 mM NaCl or NaBr, 2.5 mM NADH, and 0.5 mM substrate in HEPES pH 8.0 were incubated for 12 h at 37 °C with shaking at 230 rpm. The reactions were stopped by heating at 95 °C for 5 min and centrifuged at 12,000g for 5 min. Clarified reaction mixtures were analyzed using RP-HPLC on a Kromasil C18 column (100 Å pore size, 4.6 × 250 mm) mounted on a Waters 2695 HPLC. The gradient was as follows: 0–7.5 min, 5–50% B; 7.5–14 min, 50–100%; 14–25 min, 100% B; 25–40 min 100–5% B with flow rate 0.6 mL/min (Solvent A = H2O/CH3CN 95:5, 0.1% TFA; Solvent B = H2O/CH3CN 5/95, 0.1% TFA). Substrates and products were detected by monitoring UV absorbance at the λmax for each substrate. Product peak fractions were analyzed using ESI-MS on a SYNAPT HDMS mass spectrometer in positive ion mode with leucine enkephalin internal standard.

[5] = ITC, read-out: KD, binding to BorH, ITC

T2 sequence (F6LWA5 entry or part of it): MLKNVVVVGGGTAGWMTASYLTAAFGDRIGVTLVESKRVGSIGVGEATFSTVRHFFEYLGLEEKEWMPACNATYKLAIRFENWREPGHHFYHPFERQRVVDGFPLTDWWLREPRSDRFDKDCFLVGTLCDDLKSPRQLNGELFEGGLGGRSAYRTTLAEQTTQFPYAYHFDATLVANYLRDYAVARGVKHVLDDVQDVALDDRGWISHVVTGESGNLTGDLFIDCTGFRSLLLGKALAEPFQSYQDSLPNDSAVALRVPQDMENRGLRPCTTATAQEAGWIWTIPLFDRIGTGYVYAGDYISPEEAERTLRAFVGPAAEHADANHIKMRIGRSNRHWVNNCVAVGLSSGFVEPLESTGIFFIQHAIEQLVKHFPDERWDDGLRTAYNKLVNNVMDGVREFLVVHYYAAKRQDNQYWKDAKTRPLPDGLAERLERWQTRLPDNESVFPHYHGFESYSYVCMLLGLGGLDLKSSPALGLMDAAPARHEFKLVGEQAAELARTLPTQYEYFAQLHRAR
T1 sequence (M9QSI0 1-529): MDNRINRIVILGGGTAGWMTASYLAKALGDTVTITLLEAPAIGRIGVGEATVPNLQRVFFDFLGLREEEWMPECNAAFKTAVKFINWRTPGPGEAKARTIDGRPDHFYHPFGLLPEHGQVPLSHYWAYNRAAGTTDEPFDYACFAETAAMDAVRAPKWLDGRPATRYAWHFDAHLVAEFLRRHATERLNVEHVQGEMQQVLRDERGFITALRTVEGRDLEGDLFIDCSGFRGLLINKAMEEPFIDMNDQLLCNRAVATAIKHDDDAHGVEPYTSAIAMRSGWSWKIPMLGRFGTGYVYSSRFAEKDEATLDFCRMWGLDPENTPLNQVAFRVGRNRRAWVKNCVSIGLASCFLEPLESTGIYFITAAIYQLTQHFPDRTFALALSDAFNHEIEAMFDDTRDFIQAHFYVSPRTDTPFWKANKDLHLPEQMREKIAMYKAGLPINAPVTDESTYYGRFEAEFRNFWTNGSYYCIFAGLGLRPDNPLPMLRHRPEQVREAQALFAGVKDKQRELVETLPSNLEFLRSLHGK

Structure (SMILES) | Kd (BorH [1]) [µM] | Kd (AbeH [2]; ITC, read-out: KD, binding to AbeH, ITC) [µM] | -TDS (-TΔS, ITC, Table S3) (AbeH [2]; cell AbeH) [kcal/mol] | DG (ΔG, ITC, Table S3) (AbeH [2]; cell AbeH) [kcal/mol] | DH (ΔH, ITC, Table S3) (AbeH [2]; cell AbeH) [kcal/mol] | n (ITC, Table S3) (AbeH [2]; cell AbeH) | Kd (BorH [3]; [5]) [µM] | -TDS (-TΔS, ITC, Table S3) (BorH [3]; cell BorH) [kcal/mol] | DG (ΔG, ITC, Table S3) (BorH [3]; cell BorH) [kcal/mol] | DH (ΔH, ITC, Table S3) (BorH [3]; cell BorH) [kcal/mol] | n (ITC, Table S3) (BorH [3]; cell BorH) | Trp affinity of AbeH lower than the FAD affinity (AbeH [2]) [×] | Kd (AbeH [2]; KD (ITC, Table S3), cell AbeH) [µM] | Kd (AbeH [2]; KD for Trp/AbeH, ITC, one-site model, n fixed to 1) [µM] | Heat of binding, Trp titrated into AbeH at low molar ratios (AbeH [2]; Trp:AbeH molar ratios between 0-9, 1.4 mM Trp into 43 μM AbeH) | AbeH bromination compared with chlorination of the substrate, in words (AbeH [4]) | Trp affinity of BorH higher than that of AbeH (BorH [3]) [fold] | Trp affinity of BorH lower than the FAD affinity (BorH [3]) [×] | Kd (BorH [3]; cell BorH, read-out: KD (ITC, Table S3)) [µM] | Kd (BorH [3]; one-site model, n fixed to 1, read-out: KD for Trp/BorH, ITC) [µM]
Cc1cc2nc3c(=O)[nH]c(=O)nc-3n(C[C@H](O)[C@H](O)[C@H](O)COP(=O)(O)OP(=O)(O)OC[C@H]3O[C@@H](n4cnc5c(N)ncnc54)[C@H](O)[C@@H]3O)c2cc1C [FAD] | 9.1 ± 2.4 | 1.2 ± 0.4 | -3.6 | -8.2 | -4.6 ± 0.4 | 0.93 ± 0.05 | 13 ± 3.3 | 4.7 | -6.7 | -11.4 ± 0.4 | 1.1 ± 0.4 | – | – | – | – | – | – | – | – | –
N[C@@H](Cc1c[nH]c2ccccc12)C(=O)O [Tryptophan, L-tryptophan] | – | – | 0.4 | -4.3 | -4.7 ± 0.4 | – | 430 ± 60 | -0.5 | -4.6 | -4.1 ± 0.3 | – | 500 | 833 | 800 | no significant heat of binding detected | prefers chlorination over bromination | 2 | 30 | 435 | 400
